The results in this text go back to patent US20240083857A1, “2-Methyl-Quinazolines” (Bayer Pharma Aktiengesellschaft, priority 2017, published 2024).

The structures appear in SMILES notation. Where two headings read alike, the source gives them in different places.

The target of test [1] is Epidermal Growth Factor Receptor (EGFR) (Homo sapiens (Human), UniProt P00533). The experiment in a line: EGFR kinase assay (TR-FRET). The class given is biochemical. Summed up: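 EGFR purified from A431 cells was preincubated with compound 15 min at 22° C in pH 7.0 Hepes buffer with MgCl2, MnCl2 and vanadate before reaction with a biotinylated peptide. After EDTA stop, phosphopeptide was detected by TR-FRET (anti-phosphotyrosine Tb-cryptate, streptavidin-XL665) as the 665/620 nm emission ratio.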
On the technique in general: TR-FRET usually uses a lanthanide donor and a delayed reading to cut background.

The target in test [2] is human SOS1 (nucleotide exchange of K-Ras^G12C) (Homo sapiens, UniProt Q07889). The experiment in a line: Biochemical assay 2: K-Ras^G12C activation assay by hSOS1 at high GTP concentration (HTRF). To be noted: for inhibition at 20 µM: read-out: Assay 2 (KRAS-Activation by SOS high GTP) activity expressed as % inhibition at 20 μM, high GTP; for IC50: E-notation values, unit inferred, 50 μM GTP, read-out: Assay 2 (KRAS-Activation, high GTP) IC50.

The mark [3] stands for this setting: values given in μM, read-out: EGFR kinase inhibition IC50.
Setting [4] is: E-notation values, unit inferred, read-out: EGFR-assay IC50.
The mark [5] stands for this setting: in μM, read-out: EGFR-assay IC50.

Epidermal Growth Factor Receptor (EGFR), sequence (P00533 25-1210): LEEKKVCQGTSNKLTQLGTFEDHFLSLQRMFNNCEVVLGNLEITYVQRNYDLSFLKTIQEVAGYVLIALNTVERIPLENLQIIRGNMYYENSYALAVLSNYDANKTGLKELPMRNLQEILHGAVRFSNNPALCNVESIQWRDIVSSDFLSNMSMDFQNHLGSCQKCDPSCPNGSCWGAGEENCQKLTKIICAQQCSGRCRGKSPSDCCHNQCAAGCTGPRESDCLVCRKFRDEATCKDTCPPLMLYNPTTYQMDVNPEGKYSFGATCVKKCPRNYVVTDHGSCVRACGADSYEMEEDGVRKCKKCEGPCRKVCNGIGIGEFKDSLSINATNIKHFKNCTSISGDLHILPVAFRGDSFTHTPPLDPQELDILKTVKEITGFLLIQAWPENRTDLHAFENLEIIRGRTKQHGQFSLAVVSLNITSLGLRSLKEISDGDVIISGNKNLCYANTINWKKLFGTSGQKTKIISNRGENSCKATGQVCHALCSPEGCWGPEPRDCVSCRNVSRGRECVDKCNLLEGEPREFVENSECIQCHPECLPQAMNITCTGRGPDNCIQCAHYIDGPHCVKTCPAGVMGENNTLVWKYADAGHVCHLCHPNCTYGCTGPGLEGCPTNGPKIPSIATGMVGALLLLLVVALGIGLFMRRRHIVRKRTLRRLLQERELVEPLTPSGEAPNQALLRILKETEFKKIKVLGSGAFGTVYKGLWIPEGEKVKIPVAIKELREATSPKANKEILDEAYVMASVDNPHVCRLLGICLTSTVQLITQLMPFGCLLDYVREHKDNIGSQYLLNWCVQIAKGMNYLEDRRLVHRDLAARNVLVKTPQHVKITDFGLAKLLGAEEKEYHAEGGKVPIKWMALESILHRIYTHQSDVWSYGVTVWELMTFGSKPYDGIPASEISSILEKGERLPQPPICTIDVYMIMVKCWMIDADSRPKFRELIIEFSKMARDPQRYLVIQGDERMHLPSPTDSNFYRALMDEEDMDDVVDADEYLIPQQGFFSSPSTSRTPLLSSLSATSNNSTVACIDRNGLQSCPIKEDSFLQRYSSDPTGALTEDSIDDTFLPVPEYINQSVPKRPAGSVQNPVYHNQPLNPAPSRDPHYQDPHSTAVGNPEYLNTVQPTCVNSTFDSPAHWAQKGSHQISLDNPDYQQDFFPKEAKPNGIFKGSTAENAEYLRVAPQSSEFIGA

The term IC50 denotes the concentration needed to halve the response being measured. As usually defined, the inhibition is the share of the control response that was lost under treatment. Consider `COc1cc2nc(C)nc(NC(C)c3ccc(-n4ccc(CCO)n4)o3)c2cc1OC` (centres unmarked) [Example 226, 2-[1-(5-{1-[(6,7-dimethoxy-2-methylquinazolin-4-yl)amino]ethyl}furan-2-yl)-1H-pyrazol-3-yl]ethanol], for which the IC50 in test [1] (setting [3]) was greater than 20 µM. For the same compound, in test [2], the inhibition at 20 µM came to 37%.
Take `Cc1nc(N[C@H](C)c2cccc(Cl)c2)c2cc(C(C)(C)O)ccc2n1` [Example 392, 2-(4-{[(1R)-1-(3-chlorophenyl)ethyl]amino}-2-methylquinazolin-6-yl)propan-2-ol]: the IC50 is greater than 20 µM in test [1] (setting [4]) and 1190 nM in test [2].
Taken in the same sequence, the figures for `COc1cc2nc(C)nc(NC(C)c3ccc(-c4c(Cl)cccc4CNC(=O)OC(C)(C)C)s3)c2cc1OC` (centres unmarked) [Example 408, tert-butyl [3-chloro-2-(5-{1-[(6,7-dimethoxy-2-methylquinazolin-4-yl)amino]ethyl}thiophen-2-yl)benzyl]carbamate] were greater than 20 µM and 560 nM.
The like results for `COc1ccc(-c2ccc(C(C)Nc3nc(C)nc4cc(OC)c(OC)cc34)s2)c(CN(C)C)c1` (centres unmarked) [Example 439, N-[1-(5-{2-[(dimethylamino)methyl]-4-methoxyphenyl}thiophen-2-yl)ethyl]-6,7-dimethoxy-2-methylquinazolin-4-amine] were, in that order, greater than 20 µM and 145 nM.
Taken in the same sequence, the figures for `CNC(=O)Nc1ccc2nc(C)nc(NC(C)c3ccc(-c4ccccc4CN(C)C)s3)c2c1` (centres unmarked) [Example 457, 1-(4-{[1-(5-{2-[(dimethylamino)methyl]phenyl}thiophen-2-yl)ethyl]amino}-2-methylquinazolin-6-yl)-3-methylurea] were greater than 20 µM and 682 nM.
Take `COc1cc2nc(C)nc(NC(C)c3ccc(-c4ccc(F)cc4CNC(=O)CO)s3)c2cc1OC` (centres unmarked) [Example 382, N-[2-(5-{1-[(6,7-dimethoxy-2-methylquinazolin-4-yl)amino]ethyl}thiophen-2-yl)-5-fluorobenzyl]-2-hydroxyacetamide]: the IC50 in test [1] (setting [5]) is greater than 20 µM; in test [2], 931 nM.
For the compound `COc1cc2nc(C)nc(N[C@H](C)c3cccc(-c4ccccc4CC(N)=O)c3)c2cc1OC` [Example 393, 2-(3′-{(1R)-1-[(6,7-dimethoxy-2-methylquinazolin-4-yl)amno]ethyl}biphenyl-2-yl)acetamide], the IC50 is greater than 20 µM in test [1] (setting [4]) and 975 nM in test [2].
In the case of `COc1cc2nc(C)nc(NC(C)c3ccc(-c4cc(Cl)ccc4CNC(=O)OC(C)(C)C)s3)c2cc1OC` (centres unmarked) [Example 387, tert-butyl [4-chloro-2-(5-{1-[(6,7-dimethoxy-2-methylquinazolin-4-yl)amino]ethyl}-thiophen-2-yl)benzyl]carbamate], the IC50 was greater than 20 µM in test [1] (setting [4]) and 1660 nM in test [2].
The like results for `COc1cc2nc(C)nc(NC(C)c3cc(C)c(-c4ccccc4CN(C)C)s3)c2cc1OC` (centres unmarked) [Example 400, N-[1-(5-{2-[(dimethylamino)methyl]phenyl}-4-methyl-2-thienyl)ethyl]-6,7-dimethoxy-2-methylquinazolin-4-amine] were, in that order, greater than 20 µM and 68.8 nM.
In the case of `COc1cc2nc(C)nc(NC(C)c3ccc(C4=CCCC4)s3)c2cc1OC` (centres unmarked) [Example 231, N-{1-[5-(cyclopent-1-en-1-yl)thiophen-2-yl]ethyl}-6,7-dimethoxy-2-methylquinazolin-4-amine], the IC50 in test [1] (setting [3]) is greater than 20 µM. Also, the inhibition at 20 µM in test [2] amounted to 53%.
Consider `Cc1nc(NC(C)c2ccc(-c3ccccc3CN(C)C)s2)c2cc(N3CCN(C)C(=O)C3)ccc2n1` (centres unmarked) [Example 435, 4-(4-{[1-(5-{2-[(dimethylamino)methyl]phenyl}thiophen-2-yl)ethyl]amino}-2-methylquinazolin-6-yl)-1-methylpiperazin-2-one], for which the IC50 in test [1] (setting [4]) is greater than 20 µM; in test [2], 51.9 nM.
The like results for `COc1cc2nc(C)nc(NC(C)c3ccc(-c4ccccc4CN(C)CC#N)s3)c2cc1OC` (centres unmarked) [Example 456, {[2-(5-{1-[(6,7-dimethoxy-2-methylquinazolin-4-yl)amino]ethyl}thiophen-2-yl)benzyl](methyl)amino}acetonitrile] were, in that order, greater than 20 µM and 292 nM.
In the case of `COc1cc2nc(C)nc(NC(C)c3ccc(-c4ccccc4C(O)C(C)C)s3)c2cc1OC` (centres unmarked) [Example 379, 1-[2-(5-{1-[(6,7-dimethoxy-2-methylquinazolin-4-yl)amino]ethyl}thiophen-2-yl)phenyl]-2-methylpropan-1-ol], the values for the IC50 in test [1] (setting [5]) and in test [2] were greater than 20 µM and 1350 nM, respectively.
Taken in the same sequence, the figures for `COc1cc2nc(C)nc(NC(C)c3ccc(-c4ccccc4CNC4CC4)s3)c2cc1OC` (centres unmarked) [Example 370, N-[1-(5-{2-[(cyclopropylamino)methyl]phenyl}thiophen-2-yl)ethyl]-6,7-dimethoxy-2-methylquinazolin-4-amine] were greater than 20 µM and 352 nM.
In the case of `COc1cc2nc(C)nc(NC(C)c3ccc(-c4ccccc4CC(N)=O)s3)c2cc1OC` (centres unmarked) [Example 394, 2-[2-(5-{1-[(6,7-dimethoxy-2-methylquinazolin-4-yl)amino]ethyl}thiophen-2-yl)phenyl]acetamide], the values for the IC50 in test [1] (setting [4]) and in test [2] were greater than 20 µM and 1620 nM, respectively.
The like results for `COc1cc2nc(C)nc(NC(C)c3ccc(-c4ccccc4C(O)CO)s3)c2cc1OC` (centres unmarked) [Example 403] were, in that order, greater than 20 µM and 548 nM.
Taken in the same sequence, the figures for `Cc1nc(NC(C)c2ccc(-c3ccccc3CN(C)C)s2)c2cc(N3CCN(Cc4cccnc4)CC3)ccc2n1` (centres unmarked) [Example 426, N-[1-(5-{2-[(dimethylamino)methyl]phenyl}thiophen-2-yl)ethyl]-2-methyl-6-[4-(pyridin-3-ylmethyl)piperazin-1-yl]quinazolin-4-amine] were 4.95 µM and 23 nM.
With `Cc1nc(NC(C)c2ccc(-c3ccccc3CN(C)C)s2)c2cc(N3CCN(Cc4ccccc4)C(=O)C3)ccc2n1` (centres unmarked) [Example 458, 1-benzyl-4-(4-{[1-(5-{2-[(dimethylamino)methyl]phenyl}thiophen-2-yl)ethyl]amino}-2-methylquinazolin-6-yl)piperazin-2-one], the IC50 in test [1] (setting [4]) was greater than 20 µM; in test [2], 40 nM.
Consider `Cc1nc(NC(C)c2ccc(Br)s2)c2cc(N3CCC(N(C)C)C3)ccc2n1` (centres unmarked) [Example 414, N-[1-(5-bromothiophen-2-yl)ethyl]-6-[3-(dimethylamino)pyrrolidin-1-yl]-2-methylquinazolin-4-amine], for which the IC50 was greater than 20 µM in test [1] (setting [4]) and 1240 nM in test [2].
The like results for `COc1cc2nc(C)nc(NC(C)c3ccc(-c4ccc(Cl)cc4CN)s3)c2cc1OC` (centres unmarked) [Example 398, N-[1-{5-[2-(aminomethyl)-4-chlorophenyl]thiophen-2-yl}ethyl]-6,7-dimethoxy-2-methylquinazolin-4-amine] were, in that order, greater than 20 µM and 63.4 nM.
The like results for `CC(=O)Nc1ccc2nc(C)nc(NC(C)c3ccc(-c4ccccc4CN(C)C)s3)c2c1` (centres unmarked) [Example 420, N-(4-{[1-(5-{2-[(dimethylamino)methyl]phenyl}thiophen-2-yl)ethyl]amino}-2-methylquinazolin-6-yl)acetamide] were, in that order, greater than 20 µM and 384 nM.
Take `COC(=O)c1cc(-c2ccc(C(C)Nc3nc(C)nc4cc(OC)c(OC)cc34)s2)nn1C` (centres unmarked) [Example 237, methyl 3-(5-{1-[(6,7-dimethoxy-2-methylquinazolin-4-yl)amino]ethyl}thiophen-2-yl)-1-methyl-1H-pyrazole-5-carboxylate]: in test [1] (setting [3]), the IC50 was greater than 20 µM. In addition, the inhibition at 20 µM in test [2] was 32%.
As to `C#CC(O)c1ccccc1-c1ccc(C(C)Nc2nc(C)nc3cc(OC)c(OC)cc23)s1` (centres unmarked) [Example 378, 1-[2-(5-{1-[(6,7-dimethoxy-2-methylquinazolin-4-yl)amino]ethyl}thiophen-2-yl)phenyl]prop-2-yn-1-ol], the IC50 in test [1] (setting [5]) is greater than 20 µM; in test [2] it was 1050 nM.
For the compound `Cc1nc(NC(C)c2ccc(Br)s2)c2cc(NCCN3CCOCC3)ccc2n1` (stereo not drawn) [Example 425, N4-[l-(5-bromo-2-thienyl)ethyl]-2-methyl-N6-[2-(morpholin-4-yl)ethyl]quinazoline-4,6-diamine], the IC50 is greater than 20 µM in test [1] (setting [4]) and 2560 nM in test [2].
Taken in the same sequence, the figures for `Cc1nc(NC(C)c2ccc(-c3ccccc3CN(C)C)s2)c2cc(N3CCN(C)CC3)ccc2n1` (centres unmarked) [Example 417, N-[1-(5-{2-[(dimethylamino)methyl]phenyl}thiophen-2-yl)ethyl]-2-methyl-6-(4-methylpiperazin-1-yl)quinazolin-4-amine] were greater than 20 µM and 28.9 nM.
Take `COC(=O)c1ccc2nc(C)nc(N[C@H](C)c3cccc(Cl)c3)c2c1` [Example 371, methyl 4-{[(1R)-1-(3-chlorophenyl)ethyl]amino}-2-methylquinazoline-6-carboxylate]: the figures for the IC50 in test [1] (setting [5]) and in test [2] were greater than 20 µM and 2420 nM, respectively.
With `Cc1nc(NC(C)c2ccc(-c3ccccc3CN(C)C)s2)c2cc(NCCN3CCOCC3)ccc2n1` (centres unmarked) [Example 433, N4-[1-(5-{2-[(dimethylamino)methyl]phenyl}-2-thienyl)ethyl]-2-methyl-N6-[2-(morpholin-4-yl)ethyl]quinazoline-4,6-diamine], the IC50 in test [1] (setting [4]) is greater than 20 µM; in test [2], 70.1 nM.
For the compound `COc1cc2nc(C)nc(NC(C)c3ccc(-c4ccccc4C(O)c4ccccc4)s3)c2cc1OC` (centres unmarked) [Example 374, [2-(5-{1-[(6,7-dimethoxy-2-methylquinazolin-4-yl)amino]ethyl}thiophen-2-yl)-phenyl](phenyl)methanol], the IC50 is greater than 20 µM in test [1] (setting [5]) and 2550 nM in test [2].
